According to US4835157A, “Thieno- and furopyrimidine-2,4-dione piperidine derivatives as serotonin antagonists and alpha adrenergic blocking agents” (Ortho Pharmaceutical Corporation, priority 1988, dated 1989):
Read-outs that look alike come from different tables or passages of the source.

Assays:
5HT1A receptor = target: T1, 5HT1A receptor (Rattus norvegicus, UniProt P19327); assay: Brain Serotonin (5HT1A) radioreceptor Assay (3H-8-OH DPAT displacement, rat frontal cortex membranes); type: binding; settings: for IC50: rat frontal cortex membranes, pH 7.4, read-out: Brain 5-HT1 Receptor IC50
T1 construct: Membrane fragments were prepared from prefrontal cortex; from tissue; host or cells: prefrontal/frontal cortex of female rats (about 150 g), membrane fragments
T1 sequence (P19327 1-422): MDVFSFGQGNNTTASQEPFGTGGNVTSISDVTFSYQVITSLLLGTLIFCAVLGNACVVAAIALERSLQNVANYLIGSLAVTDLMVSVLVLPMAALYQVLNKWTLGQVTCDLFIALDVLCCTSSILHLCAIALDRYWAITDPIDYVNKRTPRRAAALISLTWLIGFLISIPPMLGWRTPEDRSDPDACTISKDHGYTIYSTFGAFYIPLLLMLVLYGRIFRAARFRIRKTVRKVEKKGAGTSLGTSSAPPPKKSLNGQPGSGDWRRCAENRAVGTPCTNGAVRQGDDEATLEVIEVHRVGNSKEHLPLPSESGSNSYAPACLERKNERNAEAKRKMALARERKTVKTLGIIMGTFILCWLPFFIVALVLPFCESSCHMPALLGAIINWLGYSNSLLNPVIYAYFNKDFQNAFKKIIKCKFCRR
Method: Brain Serotonin (5HT1A) radioreceptor Assay
The text objects of this procedure were rat frontal cortex membranes. Membrane fragments were prepared from prefrontal cortex disected from brains obtained from female rats (≈150 g). The 5HT1A sites were labeled with ^3 H-8-OH dipropylaminotetralin (8-OH-DPAT). Membrane fragments, ^3 H-8-OH DPAT, TRIS buffer (pH 7.4) and unlabeled compound were incubated for 10 minutes at 37° C. and then for 10 minutes at 4° C. Separation of bound from unbound ^3 H-8-OH DPAT was performed by vacuum filtration on a glass fiber disc. The ability of a compound to compete with ^3 H-8-OH DPAT for binding sites is a measure of the affinity of the compound for the 5HT1A receptor. Specific binding was determined by the difference between total counts bound and the counts bound in the presence of […] 5-hydroxytryptamine.

5HT2 [1] = target: T2, 5HT2 (Rattus norvegicus, UniProt P14842); assay: Brain Serotonin (5-HT2) Radioreceptor Assay (3H-ketanserin displacement, rat frontal cortex membranes); type: binding; parameters: dissected from brains obtained from female rats; from tissue; host or cells: frontal cortex of female rats (about 150 g), membrane fragments; settings: 15 min at 37° C
Method: Brain Serotonin (5-HT2) Radioreceptor Assay
The test objects of this Example were rat frontal cortex membranes. Mebrane fragments were prepared from the frontal cortex dissected from brains obtained from female rats (≈150 g). […] Compound bound to the receptor site was separated from the remaining unbound compound by vacuum filtration. […] Specific binding was determined by the difference between total counts bound and counts bound in the presence of 10^-6 M methysergide.

serotonin receptors = assay: Inhibition of 5-HTP-Induced Head Twitching; type: in vivo; settings: male CD1 mice; for Inhibit. of 5-HTP-Head Twitch ED50: 5-HTP 160 mg/kg i.v. after one hour; for Inhibit. of 5-HTP-Head Twitch (result in words): @ 10 (mg/kg, p.o.)
Method: Inhibition of 5-HTP-Induced Head Twitching
This test detects compounds with antagonistic activity of serotonin receptors in vivo, and is a modified procedure of Corne, Pickering and Warner, Brit. J. Pharmacol. 20, 106 (1963). Groups of male CD1 mice were fasted overnight but allowed water ad libitum. They were deprived of water during the course of the experiment. The mice were weighed and treated orally or parenterally with the test compound in a dose volume of 10 ml/kg. Doses of test substance were calculated based upon the active compound. Substances for oral administration were dissolved or suspended in a 0.5% aqueous methylcellulose (15 centipoises) vehicle containing 4 ml of Tween 80/l.
A dose of 160 mg/kg of L-5-hydroxytryptophan (5-HTP) was administered i.v. in a dose volume of 5 ml/kg after one hour. The test mouse was restrained in a rodent restrainer that allowed the tail to extend out the back. The tail was then placed in tepid (but not scalding) water for approximately 10 seconds to soften the skin and dilate the tail vein. A 1 ml syringe and 25 gauge (5/8 inch) needle was used to administer the 5-HTP solution into one of the lateral tail veins.
A timer was started after dosing with 5-HTP to the first animal of the test group. […] A head twitch involves the head, neck and ears and has the appearance of an exaggerated pinal reflex. The number of head twitches for each individual vehicle-treated mouse were recorded to establish a historical baseline.
The active compounds in the test block the twitch response (the response rated all or none).

[2] = tested on: Serotonin-Induced Smooth Muscle Contractions (rabbit thoracic aorta); assay: Inhibition of Serotonin-Induced Smooth Muscle Contractions (isolated thoracic aorta strips); type: cell-based; settings: Oryctolagus cuniculus, 10 min, concentration shifting the serotonin dose curve 10x to the right, 10 min preincubation, read-out: 5-HT-Induced Smooth Muscle Contraction DR10
Method: Inhibition of Serotonin-Induced Smooth Muscle Contractions
The test objects of this Example were canines and rabbits. Rabbits were sacrificed by T-61 injection and the thoracic aorta was removed immediately. The aorta was placed in warmed, oxygenated Krebs-Henseleit buffer. After the tissue was cleaned, a 2-3 mm wide strip was cut helically from each aorta. A strip of approximately 5 cm was suspended in Krebs-Henseleit buffer at 37° C. in a 25 ml tissue bath and the tissues equilibrated at an initial resting tension of 4 g for 90-120 minutes. An initial serotonin dose curve, 0.01-10 μM was then done on each tissue, followed by a 60 minute washout and reequilibration. The test drug was then added for a 10 minute preincubation and another serotonin dose curve was done using 0.01-100 μM.
Results are expressed as DR10 values. This is the concentration of the compound required to shift the serotonin dose curve 10x to the right, i.e., the concentration of antagonist at which the concentration of serotonin required for 50% maximal contraction is increased ten-fold.

[3] = tested on: alpha1 adrenergic receptor; assay: Alpha1 Blockade in vivo (inhibition of phenylephrine pressor response); parameters: species or system spontaneously hypertensive rats (SHR); settings: anesthetized, vagotomized SHR; i.v.
Method: The potency of these compounds as alpha1 adrenergic antagonists was determined using the following procedure: adult male spontaneously hypertensive rats (SHR) were anesthetized and bilaterally vagotomized. A carotid artery and jugular vein were cannulated for monitoring mean arterial blood pressure and drug administration, respectively. The percent inhibition of alpha1 adrenergic receptor activation was quantified by measuring pressor responses to phenylephrine before and after antagonist treatment. […] Compounds were tested to the limits of their solubility for intravenous administration.

5HT2 [4] = target: T2, 5HT2; assay: 5HT2 Blockade in vivo (antagonism of 5HT induced pressor responses); parameters: Spontaneously hypertensive rats were anesthetized with sodium pentobarbital; from tissue; host or cells: whole animal: anesthetized spontaneously hypertensive rats (vasculature); species or system spontaneously hypertensive rats; settings: for ED50: rat, iv, read-out: 5-HT-Induced Pressor Response ED50
Method: Antagonism of 5HT induced pressor responses was used to assess 5HT2 blockade in vivo. Spontaneously hypertensive rats were anesthetized with sodium pentobarbital (50 mg/kg, i.p.). The right carotid artery and vein were cannulated for pressure recording and drug injection, respectively. The trachea was cannulated, the rat placed on a respirator and ventilated with room air at 50-60 breaths/minute. Rats were pretreated with prazosin hydrochloride (1 mg/kg, i.v., blous) and pentolinium tartrate (5 mg/kg, i.v., bolus). After 10 minutes equilibration, the rat was challenged with 5HT (100 μg/kg) which elevates mean arterial pressure (MAP) 60-100 mmHg; non-responsive rats were discarded.
After a baseline had been reestablished, bolus injections of 5HT (100 μg/kg, i.v.) were given and the MAP responses were evaluated both pre- and post-drug administration. 5HT challenges were repeated 10 minutes after each dose of antagonist. Up to three cumulative doses of the antagonist were given to a single animal.

[5] = tested on: serotonin-induced platelet aggregation; assay: Platelet Aggregation Assay (serotonin-induced); type: cell-based; settings: Platelet; human plasma, serotonin 5 μM
Method: Platelet Aggegation Assay
Human blood was collected into tubes containing sodium citrate. The plasma was separated by centrifugation and was used as the source of platelets. Serotonin (5 μM) was used as the agonist to induce platelet aggregation. A control aggregation curve (as measured by the decrease in absorbance in transmitted light) was obtained in the presence of serotonin and in the absence of test compound. The test compound was added to an identical sample in a cuvette for one minute before addition of serotonin to yield the experimental curve.

[6] = @ 1 μM, 3H-8-OH DPAT, read-out: Brain 5-HT1 Receptor % displaced (% inhibition)

T2 sequence (P14842 whole entry, the tested form may be a part): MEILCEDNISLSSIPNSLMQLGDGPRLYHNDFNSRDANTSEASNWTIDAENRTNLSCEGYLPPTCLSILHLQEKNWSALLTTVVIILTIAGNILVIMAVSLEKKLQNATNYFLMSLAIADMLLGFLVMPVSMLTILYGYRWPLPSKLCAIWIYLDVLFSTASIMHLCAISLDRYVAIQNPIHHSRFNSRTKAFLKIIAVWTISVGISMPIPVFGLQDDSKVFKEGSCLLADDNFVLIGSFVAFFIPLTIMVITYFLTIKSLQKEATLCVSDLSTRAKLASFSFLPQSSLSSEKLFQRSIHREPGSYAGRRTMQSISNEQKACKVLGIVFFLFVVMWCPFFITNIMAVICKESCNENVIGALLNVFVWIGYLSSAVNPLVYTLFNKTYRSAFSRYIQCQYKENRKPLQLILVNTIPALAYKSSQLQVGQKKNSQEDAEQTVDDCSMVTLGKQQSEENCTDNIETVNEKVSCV

SMILES | inhibition at 1 µM (5HT1A receptor; [6]) | IC50 (5HT2 [1]) | Inhibit. of 5-HTP-Head Twitch ED50 (serotonin receptors) | IC (10-fold shift) [2] | Inhibit. of 5-HTP-Head Twitch (result in words) (serotonin receptors) | ED50 (5HT2 [4]) | IC50 [5] | other results
CCCCn1c(=O)n(CCN2CCC(C(=O)c3ccc(F)cc3)CC2)c(=O)c2cscc21 [Example 15, 1-Butyl-3-[2-[4-(4-fluorobenzoyl)piperidin-1-yl]ethyl]thieno[3,4-d]pyrimidine-2,4-dione 1/4 Hydrate] | 0% | 450 nM | 1-10 mg/kg, p.o. | – | – | – | – | –
CC(C)(C)C(=O)n1c(=O)n(CCN2CCC(C(=O)c3ccc(F)cc3)CC2)c(=O)c2cscc21 [Example 13] | 31% | 15 nM | 1.98 mg/kg, p.o. | 0.03 µM | – | – | – | –
CCCCn1c(=O)n(CCN2CCC(C(=O)c3ccc(F)cc3)CC2)c(=O)c2ccsc21 [Example 18, 1-Butyl-3-[2-[4-(4-fluorobenzoyl)piperidin-1-yl]ethyl]thieno[2,3-d]pyrimidine-2,4-dione] | 17% | 23 nM | – | – | Inact. | – | – | –
O=C(c1ccc(F)cc1)C1CCN(CCn2c(=O)[nH]c3sccc3c2=O)CC1 [Example 2, 3-[2-[4-(4-Fluorobenzoyl)piperidin-1-yl]ethyl]thieno[2,3-d]pyrimidine-2,4-dione] | – | 1.6 nM | 0.26 mg/kg, p.o. | – | – | 0.016 mg/kg | – | Phenylephrine-Induced Pressor Response ED50 [3]: < 3.0 mg/kg; inhibition at 10 µM (5HT1A receptor; @ 10 μM, 3H-8-OH DPAT, read-out: Brain 5-HT1 Receptor % displaced (% inhibition)): 24%
O=C(c1ccc(F)cc1)C1CCN(CCn2c(=O)c3cscc3n(C(=O)c3ccccc3)c2=O)CC1 [Example 12, 1-Benzoyl-3-[2-[4-(4-fluorobenzoyl)piperidin-1-yl]ethyl]thieno[3,4-d]pyrimidine-2,4-dione] | 24% | 8.5 nM | 1.74 mg/kg, p.o. | – | – | – | 100 nM | 5-HT-Induced Pressor Response, % attenuation (5HT2 [4]; @ 0.3 (mg/kg), anesthetized SHR, 5HT 100 μg/kg i.v.): 44%
Cn1c(=O)n(CCN2CCC(=C(c3ccc(F)cc3)c3ccc(F)cc3)CC2)c(=O)c2cscc21 [Example 23] | – | 1.8 nM | – | 0.066 µM | – | > 0.3 mg/kg | 17000 nM | IC50 (5HT1A receptor; 3H-8-OH DPAT): 3000 nM
O=C(c1ccc(F)cc1)C1CCN(CCCCn2c(=O)[nH]c3cscc3c2=O)CC1 [Example 19, 3-[4-[4-(4-Fluorobenzoyl)piperidin-1-yl]butyl]thieno[3,4-d]pyrimidine-2,4-dione] | – | 12.5 nM | 1-10 mg/kg, p.o. | – | – | – | – | IC50 (5HT1A receptor; 3H-8-OH DPAT): 210 nM
CC(C)(C)C(=O)n1c(=O)n(CCN2CCC(=C(c3ccc(F)cc3)c3ccc(F)cc3)CC2)c(=O)c2cscc21 [Example 7, 3-[2-[4-[Bis(4-fluorophenyl)methylene]piperidin-1-yl]ethyl]-1-(2,2-dimethyl-1-oxopropyl)thieno[3,4-d]pyrimidine-2,4-dione] | 3% | 0.31 nM | – | 0.02 µM | – | 0.038 mg/kg | 2500 nM | –
O=C(c1ccccc1)n1c(=O)n(CCN2CCC(=C(c3ccc(F)cc3)c3ccc(F)cc3)CC2)c(=O)c2cscc21 [Example 8] | 0% | 200 nM | – | 0.01 µM | Inact. | 0.038 mg/kg | – | –
Cc1scc2[nH]c(=O)n(CCN3CCC(=C(c4ccc(F)cc4)c4ccc(F)cc4)CC3)c(=O)c12 [Example 17] | 0% | 32 nM | – | – | Inact. | – | – | –
Cc1scc2[nH]c(=O)n(CCN3CCC(C(=O)c4ccc(F)cc4)CC3)c(=O)c12 [Example 16, 3-[2-[4-(4-Fluorobenzoyl)piperidin-1-yl]ethyl]-5-methylthieno[3,4-d]pyrimidine-2,4-dione] | 2% | 7 nM | – | 0.019 µM | – | 0.119 mg/kg | 380 nM | –
O=c1[nH]c2cscc2c(=O)n1CCN1CC=C(c2ccccc2)CC1 [Example 24, 3-[2-[4-Phenyl-1,2,3,6-tetrahydropyridin-1-yl]ethyl]thieno[3,4-dy]pyrimidine-2,4-dione] | – | 29 nM | – | – | Inact. | – | – | inhibition at 1 µM (5HT1A receptor; read-out: Brain 5-HT1 Receptor % displaced (% inhibition)): 53%
O=c1[nH]c2cscc2c(=O)n1CCCCCN1CCC(=C(c2ccc(F)cc2)c2ccc(F)cc2)CC1 [Example 20, 3-[5-[4-[Bis(4-fluorophenyl)methylene]piperidin-1-yl]pentyl]thieno[3,4-d]pyrimidine-2,4-dione] | – | 650 nM | – | 0.085 µM | – | – | 300 nM | IC50 (5HT1A receptor; 3H-8-OH DPAT): 270 nM
